The target of assay [1] is T1, HCV NS3 protease type 1b / NS4A cofactor peptide (Hepatitis C virus genotype 1b, UniProt P26663).
T1 construct: recombinant HCV NS3 protease (amino acid 1027 to 1206) was cloned in the pET11d bacterial expression vector; made in house; host or cells: E. coli BL21(DE3)pLysS
Nature of the assay: Recombinant HCV NS3 protease/NS4A cofactor peptide radiometric assay (Example 37). In kind it is biochemical, HCV genotype 1b. The procedure:
Recombinant HCV NS3 Protease/NS4A Cofactor Peptide Radiometric Assay
The enzyme was cloned, expressed and prepared according to the protocol described in Example 36. The enzyme was stored at −80° C., thawed on ice and diluted just prior to use in the assay buffer containing the NS4A cofactor peptide.
The substrate used for the NS3 protease/NS4A cofactor peptide radiometric assay, DDIVPC-SMSYTW, is cleaved between the cysteine and the serine residues by the enzyme. The sequence DDIVPC-SMSYTW corresponds to the NS5A/NS5B natural cleavage site in which the cysteine residue in P2 has been substituted for a proline. The peptide substrate DDIVPC-SMSYTW and the tracer biotin-DDIVPC-SMS[^125I-Y]TW are incubated with the recombinant NS3 protease and the NS4A peptide cofactor […] (molar ratio enzyme:cofactor 1:100) in the absence or presence of inhibitors. The separation of substrate from products is performed by adding avidin-coated agarose beads to the assay mixture followed by filtration. The amount of SMS[^125I-Y]TW product found in the filtrate allows for the calculation of the percentage of substrate conversion and of the percentage of inhibition.
Tris and Tris-HCl (UltraPure) were obtained from Gibco-BRL. […]
The filtrates were counted on a Packard TopCount instrument using a ^125I-liquid protocol for 1 minute.
The % inhibition was calculated with the following equation: […]

In assay [2] the target is bovine pancreatic α-chymotrypsin (Bos taurus, UniProt P00766). Nature of the assay: Specificity assay (Example 40), bovine pancreatic α-chymotrypsin. The conditions noted are these: read-out: α-Chym. activity in the specificity assay of Example 40. In kind it is biochemical. The procedure: (§1) The specificity of the compounds was determined against a variety of serine proteases: human leukocyte elastase, porcine pancreatic elastase and bovine pancreatic α-chymotrypsin and one cysteine protease: human liver cathepsin B. In all cases a 96-well plate format protocol using a calorimetric p-nitroaniline (pNA) substrate specific for each enzyme was used. Each assay included a 1 h enzyme-inhibitor pre-incubation at 30° C. followed by addition of substrate and hydrolysis to ≈30% conversion as measured on a UV Thermomax® microplate reader. Substrate concentrations were kept as low as possible compared to KM to reduce substrate competition. Compound concentrations varied from 300 to 0.06 μM depending on their potency.
(§2) The final conditions for each assay were as follows:
(§3) 50 mM Tris-HCl pH 8, 0.5 M Na2SO4, 50 mM NaCl, 0.1 mM EDTA, 3% DMSO, 0.01% Tween-20 with;
[100 μM Succ-AAPF-pNA and 250 pM α-chymotrypsin], [133 μM Succ-AAA-pNA and 8 nM porcine elastase], [133 μM Succ-AAV-pNA and 8 nM leukocyte elastase]; or
The sequential 2-fold dilutions of the inhibitor solution were performed on a separate plate by the liquid handler using 50 mM Tris-HCl pH 8, 50 mM NaCl, 0.1 mM EDTA, 0.02% Tween-20, 15% DMSO. All other specificity assays were performed in a similar fashion.
The percentage of inhibition was calculated using the formula:
[1-((UVinh−UVblank)/(UVctl−UVblank))]×100 […]

Assay [3] deals with porcine pancreatic elastase (PPE) (Sus scrofa, UniProt P00772). Nature of the assay: Specificity assay (Example 40), porcine pancreatic elastase. The class given is biochemical. The procedure: as §1, §2, §3
Chain of porcine pancreatic elastase (PPE) (P00772 27-266): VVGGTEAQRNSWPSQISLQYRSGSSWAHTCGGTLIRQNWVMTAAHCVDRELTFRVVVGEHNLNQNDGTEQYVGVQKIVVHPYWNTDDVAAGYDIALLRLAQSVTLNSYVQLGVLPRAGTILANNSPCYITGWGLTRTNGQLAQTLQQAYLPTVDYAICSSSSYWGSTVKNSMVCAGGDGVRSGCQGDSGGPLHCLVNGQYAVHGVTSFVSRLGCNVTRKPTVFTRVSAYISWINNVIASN
[100 μM Succ-AAPF-pNA and 250 pM α-chymotrypsin], [133 μM Succ-AAA-pNA and 8 nM porcine elastase], [133 μM Succ-AAV-pNA and 8 nM leukocyte elastase]; or […]
After 60 min pre-incubation at 30° C., 20 μL of substrate solution (50 mM Tris-HCl, pH 8, 0.5 M Na2SO4, 50 mM NaCl, 0.1 mM EDTA, 665 μM Succ-AAA-pNA) were added to each well and the reaction was further incubated at 30° C. for 60 min after which time the absorbance was read on the UV Thermomax® plate reader. […]
The percentage of inhibition was calculated using the formula: […]

Here are results for one compound from patent US6534523B1, “Hepatitis C inhibitor tri-peptides” (Boehringer Ingelheim (Canada) Ltd., priority 1998, dated 2003).

pIC50: −log10 of the molar value.

T1 sequence (P26663 1027-1206, other chains not shown): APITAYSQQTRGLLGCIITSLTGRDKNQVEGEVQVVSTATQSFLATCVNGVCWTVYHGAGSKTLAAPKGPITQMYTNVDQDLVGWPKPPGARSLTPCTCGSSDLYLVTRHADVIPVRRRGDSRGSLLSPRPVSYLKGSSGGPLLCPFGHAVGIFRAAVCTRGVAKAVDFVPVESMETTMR

For `C=C[C@@H]1C[C@]1(NC(=O)[C@@H]1C[C@@H](Oc2cc(-c3ccccc3)nc3cc(OC)ccc23)CN1C(=O)[C@@H](NC(=O)OC(C)(C)C)C(C)C)C(=O)O` [compound 601], the pIC50 was 7.30 in assay [1], less than 4.12 in assay [2] and less than 4.12 in assay [3].
